Patent publication US20230329284A1, “BEE ANTIVIRAL COMPOSITIONS” (priority 2022, published 2023)

What was measured:
[1] = tested on: Deformed wing virus (DWV); assay: Fluorescent determination of bee viral titers with nano-luciferase-expressing DWV construct; assay type: in vivo, bees; conditions: for Average Fluorescence, Average Counts: single treatment with 10^5 copies DWV, average of nine bees, DWV alone 111.366, PBS 1.687; for viral load of DWV-infected bees compared with DWV control: low, medium, or high doses
Procedure: A fluorescent assay was performed to determine the effects of different treatments on bee viral load.
Bees were treated once with different doses of methyl jasmonate while simultaneously receiving an effective does (10^5 copies) of Deformed wing virus (DWV). The methyl jasmonte was at low dose (MJL), medium dose (MJM), or high dose (MJH). Additional bees were treated with thymol solution in low dose (TL), medium dose (TM), and high dose (TH). The infective virus dose comprised a viral construct that expressed nano-luciferase, allowing direct quantification of viral loads via spectrophotometer. As a negative control, phosphate buffered saline (PBS) solution was used alone. As a positive control, bees were infected with 10^5 DWV alone. Measurements were repeated nine times in nine different bees, and an average calculated.

deformed wing virus = assay: Screen of plant compounds for effect on bee viral loads in live bees; assay type: in vivo, honey bee; conditions: for deformed wing virus levels (viral loads), dose response: FIG. 6; for antiviral activity in live bee trials: live bees exposed to natural products derived from plants
Procedure: A total of 140 compounds were screened for their effect on bee viral loads.
All compounds are selected from food-safe (GRAS, generally recognized as safe by the US FDA) libraries and were tested in live bees to assess adverse impacts to bee health. Trials were carried out using live bees exposed to natural products derived from plants. […] Thymol and octanoic acid blends are being tested to assess possible synergies prior to field trials.

VDV = assay: Methyl jasmonate feeding of naturally VDV-infected adult honey bees, VDV load per bee by qPCR (ΔCq); assay type: in vivo; conditions: for decrease in VDV titers compared to control bees (sugar alone) / mean change in quantification cycle value of VDV per bee (ΔCq) / decrease in VDV titers compared to control bees / mean ΔCq of VDV per bee: FIG. 1; for decrease in VDV titers compared to control bees (sugar alone) / mean change in quantification cycle value of VDV per bee (ΔCq): day 7; for mean change in quantification cycle value of VDV per bee (ΔCq): control 3.9 (+/-3.5); for decrease in VDV titers compared to control bees / mean ΔCq of VDV per bee: day 12; for mean ΔCq of VDV per bee: control 7.8 ( +/- 2.8)
Procedure: The effect on viral load of methyl jasmonate (MeJA) treatment on virally-infected bees was tested after 7 days and after 12 days of feeding sugar or sugar + MeJA.
Adult honey bees were reared in cages and fed either sucrose solution, 100 ppm MeJA dissolved in sucrose solution, or 500 ppm of MeJA dissolved in sucrose solution. Bees’ genetic material was individually examined by qPCR for normalized VDV loads at 7 days and 12 days after the start of MeJA treatment. Standard box plots include a dotted line that represents the mean, and each point represents an individual bee from one of various cages per treatment. VDV was not administered artificially and is from a natural infection. Levels of DWV-A, a recombinant variant of VDV, were too low in the specimen for quantification. A higher Δ Cq indicates […] VDV present in the specimen. For Day 7,
A second efficiency test was performed where VDV-infected adult bees were fed 100 ppm of MeJA dissolved in sucrose solution. As a control, only sucrose solution was administered.

SMILES: CC/C=C\CC1C(=O)CCC1CC(=O)OC (stereo not shown) [MeJA, Methyl jasmonate]
- Average Fluorescence, Average Counts ([1]; high dose): 68.246
- Average Fluorescence, Average Counts ([1]; low dose): 76.120
- viral load of DWV-infected bees compared with DWV control [1]: lower viral load
- Average Fluorescence, Average Counts ([1]; medium dose): 83.905
- deformed wing virus levels (viral loads), dose response (deformed wing virus; higher levels, 1 mM or 10 mM): dose response in viral loads
- antiviral activity in live bee trials (deformed wing virus): antiviral activity
- decrease in VDV titers compared to control bees (sugar alone) (VDV; sugar + 100 ppm MeJA): 11.5%
- mean change in quantification cycle value of VDV per bee (ΔCq) (VDV; sugar + 100 ppm MeJA, higher ΔCq = more VDV): 3.45 (+/- 4.8)
- decrease in VDV titers compared to control bees (sugar alone) (VDV; sugar + 500 ppm MeJA): 97.8%
- mean change in quantification cycle value of VDV per bee (ΔCq) (VDV; sugar + 500 ppm MeJA): 0.085 (+/- 6.16)
- decrease in VDV titers compared to control bees (VDV; sugar + 100 ppm MeJA): 33.3%
- mean ΔCq of VDV per bee (VDV; sugar + 100 ppm MeJA): 5.2 ( +/- 4.9)
- decrease in VDV titers compared to control bees (VDV; sugar + 500 ppm MeJA): 52.6%
- mean ΔCq of VDV per bee (VDV; sugar + 500 ppm MeJA): 3.7 ( +/- 5.3)
- decrease in VDV titers compared to bees fed sugar alone (using the mean) (VDV; FIG. 3, Day 7, sugar + 500 ppm MeJA): 7.1%
- median Cq (VDV; FIG. 3, Day 7, sugar + 500 ppm MeJA, control 7.1): 6.1
- mean Cq (VDV; FIG. 3, Day 7, sugar + 500 ppm MeJA, spread 2.1, control 7.0): 6.5
- decrease in VDV titers compared to bees fed sugar alone (using the mean) (VDV; second efficiency test, FIG. 2, Day 7, sugar + 100 ppm MeJA): 21.9%
- median ΔCq (VDV; second efficiency test, FIG. 2, Day 7, sugar + 100 ppm MeJA, control 4.17): 1.33
- mean ΔCq (VDV; second efficiency test, FIG. 2, Day 7, sugar + 100 ppm MeJA, std dev. 3.8, control 3.2): 2.5
- viral levels compared with bees fed sugar alone (VDV; treated for 12 days with sugar + MeJA): significantly lower viral levels

SMILES: COc1cc(/C=C/C(=O)O)ccc1O [ferulic acid, Ferulic acid]
- deformed wing virus levels (viral loads), dose response (deformed wing virus; low levels, 0.1 mM): dose response in viral loads
- antiviral activity in live bee trials (deformed wing virus): antiviral activity

SMILES: CCCCCCCC(=O)O [octanoic acid]
- deformed wing virus levels (viral loads), dose response (deformed wing virus; higher levels, 10 mM and 100 mM): dose response in viral loads
- antiviral activity in live bee trials (deformed wing virus): antiviral activity

SMILES: Cc1ccc(C(C)C)c(O)c1 [thymol, 2-isopropyl-5-methylphenol]
- Average Fluorescence, Average Counts ([1]; high dose): 63.290
- Average Fluorescence, Average Counts ([1]; low dose): 67.092
- viral load of DWV-infected bees compared with DWV control [1]: lower viral load
- Average Fluorescence, Average Counts ([1]; medium dose): 72.992
- high-intensity infections (viral levels above threshold) (deformed wing virus; FIG. 5, across 3000 honey bee trials): quantitative reduction of high-intensity infections
- antiviral activity in live bee trials (deformed wing virus): antiviral activity
